Article PMC9719519, “Non-classical ferroptosis inhibition by a small molecule targeting PHB2” (Nature Communications, 2022)

Columns and labels:
Assay in all cases: biochemical
Set-up in all cases: Eurofins recombinant human kinase profiling, remaining kinase activity as % of control, 10 uM ATP
Conditions in all cases: ATP 10 uM; read-out: %Ctrl@10 μM
ARK5(h) = biological target: T1, ARK5(h) (Homo sapiens, UniProt O60285)
T1 construct: gene NUAK1
In short: (§1)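 Activity measured in a commercial panel of 401 recombinant human protein kinases run as a kinase profiling service.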

Arg(h) = biological target: T2, Arg(h) (Homo sapiens, UniProt P42684)
T2 construct: gene ABL2
In short: as §1

Aurora-C(h) = biological target: T3, Aurora-C(h) (Homo sapiens, UniProt Q9UQB9)
T3 construct: gene AURKC
In short: as §1

BTK(h) = BTK(h) (Homo sapiens, UniProt Q06187)
In short: as §1

Blk(h) = Blk(h) (Homo sapiens, UniProt P51451)
In short: as §1

CDK9/cyclin T1(h) = CDK9/cyclin T1(h) (Homo sapiens, UniProt P50750)
In short: as §1

CK1ε(h) = biological target: T4, CK1ε(h) (Homo sapiens, UniProt P49674)
T4 construct: gene CSNK1E
In short: as §1

CK2α1(h) = biological target: T5, CK2α1(h) (Homo sapiens, UniProt P68400)
T5 construct: gene CSNK2A1
In short: as §1

CaMKK1(h) = CaMKK1(h) (Homo sapiens, UniProt Q8N5S9)
In short: as §1

DDR2(h) = DDR2(h) (Homo sapiens, UniProt Q16832)
In short: as §1

DYRK2(h) = DYRK2(h) (Homo sapiens, UniProt Q92630)
In short: as §1

EGFR(L858R)(h) = EGFR(L858R)(h) (Homo sapiens, UniProt P00533, L858R)
In short: as §1

EphA2(h) = EphA2(h) (Homo sapiens, UniProt P29317)
In short: as §1

EphA5(h) = EphA5(h) (Homo sapiens, UniProt P54756)
In short: as §1

HIPK2(h) = HIPK2(h) (Homo sapiens, UniProt Q9H2X6)
In short: as §1

IRE1(h) = biological target: T6, IRE1(h) (Homo sapiens, UniProt O75460)
T6 construct: gene ERN1
In short: as §1

LRRK2(h) = LRRK2(h) (Homo sapiens, UniProt Q5S007)
In short: as §1

MAPKAP-K2(h) = biological target: T7, MAPKAP-K2(h) (Homo sapiens, UniProt P49137)
T7 construct: gene MAPKAPK2
In short: as §1

MARK1(h) = MARK1(h) (Homo sapiens, UniProt Q9P0L2)
In short: as §1

MSK2(h) = biological target: T8, MSK2(h) (Homo sapiens, UniProt O75676)
T8 construct: gene RPS6KA4
In short: as §1

PKA(h) = biological target: T9, PKA(h) (Homo sapiens, UniProt P17612)
T9 construct: gene PRKACA
In short: as §1

PKCα(h) = biological target: T10, PKCα(h) (Homo sapiens, UniProt P17252)
T10 construct: gene PRKCA
In short: as §1

SRPK1(h) = SRPK1(h) (Homo sapiens, UniProt Q96SB4)
In short: as §1

Chain of EphA2(h) (P29317 whole entry): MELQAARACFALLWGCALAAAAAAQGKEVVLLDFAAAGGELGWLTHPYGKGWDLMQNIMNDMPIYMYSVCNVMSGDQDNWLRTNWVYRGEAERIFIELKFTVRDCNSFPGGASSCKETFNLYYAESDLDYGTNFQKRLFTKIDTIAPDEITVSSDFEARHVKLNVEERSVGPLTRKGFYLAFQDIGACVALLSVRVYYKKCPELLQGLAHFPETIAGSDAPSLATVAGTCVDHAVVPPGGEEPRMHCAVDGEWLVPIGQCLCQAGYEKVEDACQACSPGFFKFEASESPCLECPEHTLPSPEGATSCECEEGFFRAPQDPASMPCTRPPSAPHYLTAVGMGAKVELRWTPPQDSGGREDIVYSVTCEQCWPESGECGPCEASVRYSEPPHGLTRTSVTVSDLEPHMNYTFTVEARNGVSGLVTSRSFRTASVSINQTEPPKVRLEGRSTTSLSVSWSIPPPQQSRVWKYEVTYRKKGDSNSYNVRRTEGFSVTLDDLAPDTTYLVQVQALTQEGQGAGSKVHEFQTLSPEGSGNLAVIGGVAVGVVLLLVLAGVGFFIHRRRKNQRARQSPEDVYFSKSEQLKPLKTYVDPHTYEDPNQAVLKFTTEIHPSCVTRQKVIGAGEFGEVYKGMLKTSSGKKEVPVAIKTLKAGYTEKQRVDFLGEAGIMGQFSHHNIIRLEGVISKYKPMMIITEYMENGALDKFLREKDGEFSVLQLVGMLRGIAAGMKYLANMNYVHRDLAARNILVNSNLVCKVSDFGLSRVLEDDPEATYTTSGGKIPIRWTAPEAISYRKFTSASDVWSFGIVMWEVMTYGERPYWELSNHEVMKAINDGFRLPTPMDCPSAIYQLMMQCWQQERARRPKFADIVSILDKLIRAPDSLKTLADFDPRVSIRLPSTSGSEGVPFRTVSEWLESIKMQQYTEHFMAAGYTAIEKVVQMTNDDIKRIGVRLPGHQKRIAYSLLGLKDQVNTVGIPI
T3 sequence (Q9UQB9 whole entry): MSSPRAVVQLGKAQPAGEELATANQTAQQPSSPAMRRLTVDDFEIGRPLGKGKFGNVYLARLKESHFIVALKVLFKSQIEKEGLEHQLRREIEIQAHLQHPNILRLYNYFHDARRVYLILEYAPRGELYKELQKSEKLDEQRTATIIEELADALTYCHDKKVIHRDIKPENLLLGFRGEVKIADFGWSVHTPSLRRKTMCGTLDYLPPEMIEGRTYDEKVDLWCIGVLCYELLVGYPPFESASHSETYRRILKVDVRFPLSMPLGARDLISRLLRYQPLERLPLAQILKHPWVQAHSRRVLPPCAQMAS
Chain of SRPK1(h) (Q96SB4 whole entry): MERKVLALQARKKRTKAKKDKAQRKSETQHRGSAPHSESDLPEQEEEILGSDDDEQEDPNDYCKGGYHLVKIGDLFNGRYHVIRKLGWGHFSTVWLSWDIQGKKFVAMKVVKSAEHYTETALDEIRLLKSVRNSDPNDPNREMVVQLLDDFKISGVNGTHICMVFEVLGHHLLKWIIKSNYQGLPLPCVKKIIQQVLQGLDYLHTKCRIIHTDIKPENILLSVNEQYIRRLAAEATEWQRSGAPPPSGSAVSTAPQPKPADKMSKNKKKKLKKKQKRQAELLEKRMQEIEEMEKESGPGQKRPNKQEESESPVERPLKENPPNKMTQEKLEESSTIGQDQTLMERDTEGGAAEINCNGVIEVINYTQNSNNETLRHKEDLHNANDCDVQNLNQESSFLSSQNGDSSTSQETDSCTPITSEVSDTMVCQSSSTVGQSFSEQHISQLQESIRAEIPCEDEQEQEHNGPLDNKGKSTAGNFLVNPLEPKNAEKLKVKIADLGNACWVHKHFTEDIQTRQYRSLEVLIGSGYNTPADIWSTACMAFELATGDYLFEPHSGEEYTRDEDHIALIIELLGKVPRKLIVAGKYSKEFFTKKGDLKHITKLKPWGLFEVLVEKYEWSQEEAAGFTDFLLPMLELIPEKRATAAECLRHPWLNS
Chain of DYRK2(h) (Q92630 whole entry): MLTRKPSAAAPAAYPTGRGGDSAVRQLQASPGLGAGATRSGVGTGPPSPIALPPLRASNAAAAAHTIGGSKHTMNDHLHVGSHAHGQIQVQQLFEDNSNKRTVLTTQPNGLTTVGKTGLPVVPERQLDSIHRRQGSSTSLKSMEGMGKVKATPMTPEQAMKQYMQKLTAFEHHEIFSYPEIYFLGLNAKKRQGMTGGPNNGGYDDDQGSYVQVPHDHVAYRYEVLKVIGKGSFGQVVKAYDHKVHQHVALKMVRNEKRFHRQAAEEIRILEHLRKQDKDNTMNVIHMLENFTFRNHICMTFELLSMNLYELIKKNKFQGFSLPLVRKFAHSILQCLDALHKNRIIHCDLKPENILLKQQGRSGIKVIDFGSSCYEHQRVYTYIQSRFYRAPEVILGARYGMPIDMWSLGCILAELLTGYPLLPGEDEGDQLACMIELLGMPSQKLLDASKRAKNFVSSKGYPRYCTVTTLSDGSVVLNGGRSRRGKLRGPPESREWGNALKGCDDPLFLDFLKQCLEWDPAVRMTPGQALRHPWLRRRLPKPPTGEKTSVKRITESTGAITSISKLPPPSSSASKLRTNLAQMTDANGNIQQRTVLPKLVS
T8 sequence (O75676 whole entry): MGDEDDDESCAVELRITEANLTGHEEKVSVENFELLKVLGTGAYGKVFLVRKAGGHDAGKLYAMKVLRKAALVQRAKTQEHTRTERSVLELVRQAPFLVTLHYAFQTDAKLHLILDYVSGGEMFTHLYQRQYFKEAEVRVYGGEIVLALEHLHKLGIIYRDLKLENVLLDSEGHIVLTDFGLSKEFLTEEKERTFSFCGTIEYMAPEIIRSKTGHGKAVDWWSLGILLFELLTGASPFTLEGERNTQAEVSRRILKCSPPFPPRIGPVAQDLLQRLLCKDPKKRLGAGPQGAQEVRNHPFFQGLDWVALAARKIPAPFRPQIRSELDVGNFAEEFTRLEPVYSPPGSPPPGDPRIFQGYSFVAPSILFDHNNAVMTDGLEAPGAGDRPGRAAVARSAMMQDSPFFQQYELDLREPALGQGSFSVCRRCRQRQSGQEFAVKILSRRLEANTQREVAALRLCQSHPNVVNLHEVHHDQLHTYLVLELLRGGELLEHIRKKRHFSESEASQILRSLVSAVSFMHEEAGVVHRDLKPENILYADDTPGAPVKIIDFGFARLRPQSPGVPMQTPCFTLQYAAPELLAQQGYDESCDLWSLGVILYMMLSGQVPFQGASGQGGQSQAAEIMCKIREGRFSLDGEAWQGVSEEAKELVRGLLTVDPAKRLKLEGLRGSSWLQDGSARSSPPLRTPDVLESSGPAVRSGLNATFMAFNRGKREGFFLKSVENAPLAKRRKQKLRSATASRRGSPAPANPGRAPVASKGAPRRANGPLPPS
T5 sequence (P68400 whole entry): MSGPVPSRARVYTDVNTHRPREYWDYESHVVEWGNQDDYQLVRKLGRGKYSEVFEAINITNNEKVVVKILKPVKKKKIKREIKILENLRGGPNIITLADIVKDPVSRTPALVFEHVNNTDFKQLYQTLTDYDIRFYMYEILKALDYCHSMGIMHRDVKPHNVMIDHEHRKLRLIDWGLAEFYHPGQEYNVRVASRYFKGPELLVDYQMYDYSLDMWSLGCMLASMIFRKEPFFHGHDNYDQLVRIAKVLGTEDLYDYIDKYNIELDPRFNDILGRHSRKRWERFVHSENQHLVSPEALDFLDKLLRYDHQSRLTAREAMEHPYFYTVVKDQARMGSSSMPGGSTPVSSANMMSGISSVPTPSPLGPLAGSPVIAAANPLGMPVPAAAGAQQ
Chain of BTK(h) (Q06187 whole entry): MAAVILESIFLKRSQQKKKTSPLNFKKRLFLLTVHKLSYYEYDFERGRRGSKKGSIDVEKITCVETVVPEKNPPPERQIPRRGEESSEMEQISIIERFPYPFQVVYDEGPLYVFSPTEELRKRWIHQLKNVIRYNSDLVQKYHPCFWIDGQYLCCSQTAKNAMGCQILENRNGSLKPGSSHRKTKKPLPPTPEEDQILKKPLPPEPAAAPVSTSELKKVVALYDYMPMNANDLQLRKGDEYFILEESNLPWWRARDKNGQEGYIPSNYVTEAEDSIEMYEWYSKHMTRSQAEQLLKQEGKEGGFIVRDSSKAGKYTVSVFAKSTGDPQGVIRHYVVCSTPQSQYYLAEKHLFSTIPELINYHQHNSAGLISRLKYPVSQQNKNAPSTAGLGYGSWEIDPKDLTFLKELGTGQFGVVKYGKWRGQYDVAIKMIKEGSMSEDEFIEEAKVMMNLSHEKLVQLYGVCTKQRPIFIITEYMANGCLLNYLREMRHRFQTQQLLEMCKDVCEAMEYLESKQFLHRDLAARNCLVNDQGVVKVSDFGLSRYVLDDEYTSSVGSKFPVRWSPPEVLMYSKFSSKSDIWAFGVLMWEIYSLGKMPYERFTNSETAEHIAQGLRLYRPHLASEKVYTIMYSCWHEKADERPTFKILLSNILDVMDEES
T1 sequence (O60285 whole entry): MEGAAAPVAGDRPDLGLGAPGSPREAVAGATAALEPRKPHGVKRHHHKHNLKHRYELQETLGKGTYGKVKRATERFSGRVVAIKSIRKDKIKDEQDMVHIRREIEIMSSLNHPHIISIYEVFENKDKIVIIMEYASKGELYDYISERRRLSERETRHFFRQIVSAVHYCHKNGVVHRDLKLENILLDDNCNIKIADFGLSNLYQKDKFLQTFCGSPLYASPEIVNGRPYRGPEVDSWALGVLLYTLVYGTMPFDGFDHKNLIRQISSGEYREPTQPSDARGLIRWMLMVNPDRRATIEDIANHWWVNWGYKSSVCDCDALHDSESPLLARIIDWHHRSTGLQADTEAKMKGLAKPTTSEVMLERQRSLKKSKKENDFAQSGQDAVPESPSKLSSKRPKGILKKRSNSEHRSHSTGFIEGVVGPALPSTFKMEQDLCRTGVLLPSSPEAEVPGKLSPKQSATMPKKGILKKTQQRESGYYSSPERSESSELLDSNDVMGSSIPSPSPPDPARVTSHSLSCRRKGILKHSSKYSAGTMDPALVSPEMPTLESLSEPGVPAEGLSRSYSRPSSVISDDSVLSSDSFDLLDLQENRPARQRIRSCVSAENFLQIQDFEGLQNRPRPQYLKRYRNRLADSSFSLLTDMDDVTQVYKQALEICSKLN

## C1=C(c2nc(-c3cnn(C4CCNCC4)c3)cn3cc(-c4ccccc4)nc23)CCOC1 [YL-939]
ARK5(h)
  remaining activity at 10 µM: 93%
Arg(h)
  remaining activity at 10 µM: 108%
Aurora-C(h)
  remaining activity at 10 µM: 101%
BTK(h)
  remaining activity at 10 µM: 83%
Blk(h)
  remaining activity at 10 µM: 100%
CDK9/cyclin T1(h)
  remaining activity at 10 µM: 119%
CK1ε(h)
  remaining activity at 10 µM: 74%
CK2α1(h)
  remaining activity at 10 µM: 103%
CaMKK1(h)
  remaining activity at 10 µM: 91%
DDR2(h)
  remaining activity at 10 µM: 95%
DYRK2(h)
  remaining activity at 10 µM: 93%
EGFR(L858R)(h)
  remaining activity at 10 µM: 86%
EphA2(h)
  remaining activity at 10 µM: 82%
EphA5(h)
  remaining activity at 10 µM: 96%
HIPK2(h)
  remaining activity at 10 µM: 90%
IRE1(h)
  remaining activity at 10 µM: 94%
LRRK2(h)
  remaining activity at 10 µM: 103%
MAPKAP-K2(h)
  remaining activity at 10 µM: 92%
MARK1(h)
  remaining activity at 10 µM: 95%
MSK2(h)
  remaining activity at 10 µM: 90%
PKA(h)
  remaining activity at 10 µM: 98%
PKCα(h)
  remaining activity at 10 µM: 104%
SRPK1(h)
  remaining activity at 10 µM: 107%
